Source: patent publication US20260199323A1, “LIGAND COMPOUNDS FOR E3 UBIQUITIN LIGASE, PROTEIN DEGRADERS DEVELOPED ON BASIS OF LIGAND COMPOUNDS, AND USES THEREOF” (GLUETACS THERAPEUTICS (SHANGHAI) CO., LTD., priority 2021, published 2026)
Read-outs that look alike come from different tables or passages of the source.

Columns and labels:
NCI-H1975 = test: CCK-8 tumor cell proliferation, NCI-H1975; type: cell-based, Human; conditions: for IC50: Homo sapiens, Table 15, ALK inhibitor based, NCI-H1975, read-out: IC50 inhibiting proliferation of tumor cells, NCI-H1975
Method: (§1) The tumor cells used herein were cultured in a cell culture medium listed in table 4 at 37° C. in an incubator with 5% CO2. Prior to experimentation, all cells used were correctly identified by STR profiling, and tested negative for mycoplasma through routine screenings.
(§2) IC50 values of the compounds of the present disclosure (including the compounds in Tables 1 and 3, and compounds of examples) were measured using the Meilun Cell Counting Kit-8 kit from Dalian Meilun Biotech Co., Ltd. Assay details are as follows: tumor cells were seeded in a 96-well plate at a density listed in Table 5. After 24 h, 100 μL of the inoculated cells were treated with 0.5 μL of the compounds of the present disclosure (including the compounds in Tables 1 and 3, and compounds of examples) at 10 different successively decreasing concentrations (starting at the highest concentration of 10 μM; 5-fold serial dilutions). After the cells were treated with the compounds of the present disclosure for a period of time, the cell viability detection reagent was added to the culture medium for cell viability assessment according to the instructions provided with the CCK-8 kit. […] The growth inhibition of the compounds of the present disclosure on cells was plotted by Prism Graphpad software, and the IC50 values of the compounds of the present disclosure were calculated therefrom.

NCI-H2228 = test: CCK-8 tumor cell proliferation, NCI-H2228; conditions: Homo sapiens, Table 15, ALK inhibitor based, read-out: IC50 inhibiting proliferation of tumor cells, NCI-H2228
Method: as §1, §2

MDA-MB-231 = test: CCK-8 tumor cell proliferation, MDA-MB-231; type: cell-based, Human; set-up: IC50 for inhibiting the proliferation of tumor cells, MDA-MB-231: scale not given here; conditions: for IC50: Homo sapiens, Table 15, ALK inhibitor based, MDA-MB-231, read-out: IC50 inhibiting proliferation of tumor cells, MDA-MB-231
Procedure, shortened: (§3)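 Using the CCK-8 kit, viability of plated cells is assessed after exposure to compound across ten concentrations (5-fold serial dilution, top 10 μM) added at 24 h. IC50 is obtained by curve fitting of growth inhibition.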

Mino = test: CCK-8 tumor cell proliferation, Mino; type: cell-based, Human; conditions: Homo sapiens; Table 15, ALK inhibitor based; Mino; read-out: IC50 inhibiting proliferation of tumor cells, Mino
Procedure, shortened: as §3

HCC827 = test: CCK-8 tumor cell proliferation, HCC827; type: cell-based, Human; conditions: Homo sapiens
PC-9 = test: CCK-8 tumor cell proliferation, PC-9; type: cell-based, Human; conditions: Homo sapiens
SR = test: CCK-8 tumor cell proliferation, SR; type: cell-based, Human; conditions: Homo sapiens; Table 15, ALK inhibitor based; SR; read-out: IC50 inhibiting proliferation of tumor cells, SR
Procedure, shortened: as §3

CAL-62 = test: CCK-8 tumor cell proliferation, CAL-62; type: cell-based, Human; conditions: Homo sapiens; Table 23, compared to Comparative Example compounds; CAL-62; read-out: Inhibitory activity (IC50, nM) against tumor cell proliferation, CAL-62
Procedure, shortened: as §3

Jurkat = test: CCK-8 tumor cell proliferation, Jurkat; type: cell-based, Human; conditions: Homo sapiens, Table 23, compared to Comparative Example compounds, read-out: Inhibitory activity (IC50, nM) against tumor cell proliferation, Jurkat
Procedure, shortened: as §3

MM.1R = test: CCK-8 tumor cell proliferation, MM.1R; type: cell-based; conditions: Table 23, compared to Comparative Example compounds, read-out: Inhibitory activity (IC50, nM) against tumor cell proliferation, MM.1R
Procedure, shortened: as §3

Kasumi-1 = test: CCK-8 tumor cell proliferation, Kasumi-1; type: cell-based, Human; conditions: Table 7, designed based on BTK inhibitors; 72 h
Procedure, shortened: as §3

CCRF-CEM = test: CCK-8 tumor cell proliferation, CCRF-CEM; type: cell-based, Human; set-up: IC50 for inhibiting the proliferation of tumor cells, CCRF-CEM: scale not given here; conditions: 96 h
Procedure, shortened: as §3

MM.1S = test: CCK-8 tumor cell proliferation, MM.1S; type: cell-based; conditions: Table 7, designed based on BTK inhibitors; 72 h
Procedure, shortened: as §3

Vcap = test: CCK-8 tumor cell proliferation, Vcap; type: cell-based, Human; conditions: 96 h
Method: as §1, §2

THP-1 = test: CCK-8 tumor cell proliferation, THP-1; type: cell-based, Human; conditions: 72 h
Method: as §1, §2

MV-4-11 = test: CCK-8 tumor cell proliferation, MV-4-11; type: cell-based, Human; conditions: Homo sapiens, MV4-11; Table 15, ALK inhibitor based; MV-4-11; read-out: IC50 inhibiting proliferation of tumor cells, MV-4-11
Procedure, shortened: as §3

[1] = Table 15, ALK inhibitor based, HCC827, read-out: IC50 inhibiting proliferation of tumor cells, HCC827
[2] = Table 15, ALK inhibitor based, PC-9, read-out: IC50 inhibiting proliferation of tumor cells, PC-9
[3] = Table 7, designed based on BTK inhibitors, 96 h
[4] = Table 7, designed based on BTK inhibitors
[5] = Table 11, designed based on EGFR inhibitors

IC50 (NCI-H1975) | IC50 (NCI-H2228) | IC50 (MDA-MB-231) | IC50 (Mino) | IC50 (PC-9; [2]) | IC50 (SR) | SMILES | other results
0.1 to 0.5 µM | 1 to 5 µM | – | – | – | – | COc1cc(N2CCC(N3CCN(Cc4ccc5c(c4)CN(C4CCC(=O)NC4=O)C5=O)CC3)CC2)ccc1Nc1ncc(Cl)c(Nc2ccccc2P(C)(C)=O)n1 (centres unmarked) [GT-02811, 3-(5-((4-(1-(4-((5-chloro-4-((2-(dimethylphosphoryl)phenyl)amino)pyrimidin-2-yl)amino)-3-methoxyphenyl)piperidin-4-yl)piperazin-1-yl)methyl)-1-oxoisoindolin-2-yl)piperidine-2,6-dione] | –
– | 0.1 to 0.5 µM | 0.5 to 1 µM | – | 0.5 to 1 µM | < 0.05 µM | Cc1cc(Nc2ncc(Cl)c(Nc3ccccc3S(=O)(=O)C(C)C)n2)c(OC(C)C)cc1C1CCN(Cc2ccc3c(c2)CN(C2CCC(=O)NC2=O)C3=O)CC1 (centres unmarked) [GT-02973, 3-(5-((4-(4-((5-chloro-4-((2-(isopropylsulfonyl)phenyl)amino)pyrimidin-2-yl)amino)-5-isopropoxy-2-methylphenyl)piperidin-1-yl)methyl)-1-oxoisoindolin-2-yl)piperidine-2,6-dione] | –
0.05 to 0.1 µM | 0.1 to 0.5 µM | – | – | – | – | COc1cc(N2CCC(NCc3ccc4c(c3)CN(C3CCC(=O)NC3=O)C4=O)CC2)ccc1Nc1ncc(Cl)c(Nc2ccccc2P(C)(C)=O)n1 (centres unmarked) [GT-03015, 3-(5-(((1-(4-((5-chloro-4-((2-(dimethylphosphoryl)phenyl)amino)pyrimidin-2-yl)amino)-3-methoxyphenyl)piperidin-4-yl)amino)methyl)-1-oxoisoindolin-2-yl)piperidine-2,6-dione] | –
< 0.05 µM | 0.05 to 0.1 µM | 0.05 to 0.1 µM | 1 to 5 µM | 0.05 to 0.1 µM | < 0.05 µM | COc1cc(N2CCC(N(C)Cc3ccc4c(c3)CN(C3CCC(=O)NC3=O)C4=O)CC2)ccc1Nc1ncc(Cl)c(Nc2ccccc2P(C)(C)=O)n1 (centres unmarked) [GT-03319, 3-(5-(((1-(4-((5-chloro-4-((2-(dimethylphosphoryl)phenyl)amino)pyrimidin-2-yl)amino)-3-methoxyphenyl)piperidin-4-yl)(methyl)amino)methyl)-1-oxoisoindolin-2-yl)piperidine-2,6-dione] | IC50 (CAL-62): < 50 nM; IC50 (Jurkat): 1000 to 5000 nM; IC50 (MM.1R): 100 to 500 nM; IC50 (HCC827; [1]): 0.05 to 0.1 µM

Continued, molecule first:

SMILES | IC50 (NCI-H1975) | IC50 (NCI-H2228) | IC50 (MDA-MB-231) | IC50 (Mino) | IC50 (PC-9; [2]) | IC50 (SR) | other results
CCc1cc2c(cc1N1CCC(N3CCN(Cc4ccc5c(c4)CN(C4CCC(=O)NC4=O)C5=O)CC3)CC1)C(C)(C)c1[nH]c3cc(C#N)ccc3c1C2=O (centres unmarked) [GT-02972, 8-(4-(4-((2-(2,6-dioxopiperidin-3-yl)-1-oxoisoindolin-5-yl)methyl)piperazin-1-yl)piperidin-1-yl)-9-ethyl-6,6-dimethyl-11-oxo-6,11-dihydro-5H-benzo[b]carbazole-3-carbonitrile] | 0.5 to 1 µM | 0.5 to 1 µM | 0.5 to 1 µM | 0.5 to 1 µM | 0.5 to 1 µM | < 0.05 µM | IC50 (HCC827; [1]): 1 to 5 µM
CCc1cc2c(cc1N1CCN(Cc3ccc4c(c3)CN(C3CCC(=O)NC3=O)C4=O)CC1)C(C)(C)c1[nH]c3cc(C#N)ccc3c1C2=O (centres unmarked) [GT-03409, 8-(4-((2-(2,6-dioxopiperidin-3-yl)-1-oxoisoindolin-5-yl)methyl)piperazin-1-yl)-9-ethyl-6,6-dimethyl-11-oxo-6,11-dihydro-5H-benzo[b]carbazole-3-carbonitrile] | – | 1 to 5 µM | 1 to 5 µM | – | 1 to 5 µM | < 0.05 µM | IC50 (HCC827; [1]): 1 to 5 µM
Nc1ncnc2c1c(-c1ccc(Oc3ccccc3)cc1)nn2C1CCN(Cc2ccc3c(c2F)CN(C2CCC(=O)NC2=O)C3=O)CC1 (centres unmarked) [GT-03472, 3-(5-((4-(4-amino-3-(4-phenoxyphenyl)-1H-pyrazolo[3,4-d]pyrimidin-1-yl)piperidin-1-yl)methyl)-4-fluoro-1-oxoisoindolin-2-yl)piperidine-2,6-dione] | – | – | – | – | – | – | IC50 for inhibiting the proliferation of tumor cells, NCI-H1975 (NCI-H1975; [3]): A+; IC50 for inhibiting the proliferation of tumor cells, Kasumi-1 (Kasumi-1): A+; IC50 for inhibiting the proliferation of tumor cells, CCRF-CEM (CCRF-CEM; [4]): A+; IC50 for inhibiting the proliferation of tumor cells, MM.1S (MM.1S): A+; IC50 for inhibiting the proliferation of tumor cells, MDA-MB-231 (MDA-MB-231; [3]): A+; IC50 for inhibiting the proliferation of tumor cells, Vcap (Vcap; [4]): A+; IC50 for inhibiting the proliferation of tumor cells, THP-1 (THP-1; [4]): A+
NC(=O)c1ccc(N2CCN(Cc3ccc4c(c3)CN(C3CCC(=O)NC3=O)C4=O)CC2)nc1-c1ccc(Oc2ccccc2)cc1 (centres unmarked) [GT-03636, 6-(4-((2-(2,6-dioxopiperidin-3-yl)-1-oxoisoindolin-5-yl)methyl)piperazin-1-yl)-2-(4-phenoxyphenyl)nicotinamide] | – | – | – | – | – | – | IC50 for inhibiting the proliferation of tumor cells, THP-1 (THP-1; [4]): A+
CCc1cc2c(cc1N1CCC(N3CCN(Cc4cc(F)c5c(c4)CN(C4CCC(=O)NC4=O)C5=O)CC3)CC1)C(C)(C)c1[nH]c3cc(C#N)ccc3c1C2=O (centres unmarked) [GT-03760, 8-(4-(4-((2-(2,6-dioxopiperidin-3-yl)-7-fluoro-1-oxoisoindolin-5-yl)methyl)piperazin-1-yl)piperidin-1-yl)-9-ethyl-6,6-dimethyl-11-oxo-6,11-dihydro-5H-benzo[b]carbazole-3-carbonitrile] | 0.05 to 0.1 µM | 0.1 to 0.5 µM | – | 0.1 to 0.5 µM | – | < 0.05 µM | IC50 (MV-4-11): 0.5 to 1 µM
O=C1CCC(N2Cc3cc(CN4CCC(N5CCN(c6ccc(-c7cc(F)c8c(c7)C(=O)N(C(C(=O)Nc7nccs7)c7ncn9c7CCC9)C8)cc6)CC5)C(F)(F)C4)ccc3C2=O)C(=O)N1 (centres unmarked) [GT-04459, 2-(6,7-dihydro-5H-pyrrolo[1,2-c]imidazol-1-yl)-2-(6-(4-(4-(1-((2-(2,6-dioxopiperidin-3-yl)-1-oxoisoindolin-5-yl)methyl)-3,3-difluoropiperidin-4-yl)piperazin-1-yl)phenyl)-4-fluoro-1-oxoisoindolin-2-yl)-N-(thiazol-2-yl)acetamide] | – | – | – | – | – | – | IC50 for inhibiting the proliferation of tumor cells, CCRF-CEM (CCRF-CEM; [5]): A+; IC50 for inhibiting the proliferation of tumor cells, Vcap (Vcap; [5]): A+; IC50 for inhibiting the proliferation of tumor cells, THP-1 (THP-1; [5]): A+
CCc1cc2c(cc1N1CCC(N3CCOCC3)CC1)C(C)(C)c1[nH]c3cc(C#N)ccc3c1C2=O [alectinib, reference compound] | 1 to 5 µM | 1 to 5 µM | 1 to 5 µM | 5 to 10 µM | 0.1 to 0.5 µM | < 0.05 µM | –
COc1cc(N2CCC(N3CCN(C)CC3)CC2)ccc1Nc1ncc(Cl)c(Nc2ccccc2P(C)(C)=O)n1 [brigatinib, reference compound] | 0.5 to 1 µM | 0.1 to 0.5 µM | 0.5 to 1 µM | 5 to 10 µM | – | < 0.05 µM | IC50 (HCC827; HCC827, read-out: IC50 inhibiting proliferation of tumor cells, HCC827): 0.1 to 0.5 µM; IC50 (PC-9; PC-9, read-out: IC50 inhibiting proliferation of tumor cells, PC-9): 1 to 5 µM
